Laboratory results as given in PubChem BioAssay (NCI).
“And” between values parts separate entries of the source, which are not always exact repeats. Identical values can stand only once.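 Protocol summary: plate cells (96-well), add compound at 5 concentrations, incubate 48 h, interpolate endpoints linearly. At the GI50, growth is halved. TGI: concentration producing complete growth inhibition.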

Experiments:
Experiment in all cases: DTP human tumour cell line panel, 48 h
[1] = test system: TK-10 renal
[2] = test system: OVCAR-4 ovarian
[3] = test system: MDA-MB-231 breast
[4] = test system: RPMI-8226 leukemia
[5] = test system: NCI/ADR-RES ovarian
[6] = test system: MOLT-4 leukemia
[7] = test system: HCT-15 colon
[8] = test system: SN12C renal
[9] = test system: K-562 leukemia
[10] = test system: NCI-H23 lung

Structure (SMILES)	GI50 [1]	TGI [1]	GI50 [2]	TGI [2]	GI50 [3]	TGI [3]	GI50 [4]	TGI [4]	GI50 [5]	TGI [5]	GI50 [6]	TGI [6]	GI50 [7]	TGI [7]	GI50 [8]	TGI [8]	GI50 [9]	TGI [9]	GI50 [10]	TGI [10]
CN1CCN(CCCn2c3c(sc4ncccc43)c(=O)n3nnc(-c4ccccc4)c23)CC1	3.15 µM	10.7 µM	1.87 µM	3.73 µM	1590 nM	3.04 µM	2080 nM	5.3 µM	1.95 µM	4.77 µM	889 nM	2.86 µM	1870 nM	4.3 µM	14.5 µM	28.8 µM	593 nM	1.56 µM	1970 nM	4.38 µM
CCN1C(=O)N(CC)C2C1NN=c1s/c(=C\c3ccc(Br)cc3)c(=O)n12 (configuration not stated)	0.741 µM	> 100 µM	0.388 µM	> 100 µM	306 nM	> 76.6 µM	269 nM	–	0.0626 µM	> 100 µM	392 nM	> 100 µM	59.8 nM	> 100 µM	0.512 µM	> 100 µM	45.3 nM	> 100 µM	422 nM	> 100 µM
COc1cc(OC)c(OC)cc1/C=C/c1ccc2ccccc2n1	–	> 10 µM	–	> 10 µM	–	> 10 µM	–	> 10 µM	–	> 10 µM	–	> 10 µM	–	> 10 µM	–	> 10 µM	–	> 10 µM	–	> 10 µM
NC(=O)C1CCCN1Cc1ccc2c(c1)OCO2 (configuration not stated)	–	> 100 µM	–	> 100 µM	–	> 100 µM	–	> 100 µM	–	> 100 µM	–	> 100 µM	–	> 100 µM	–	> 100 µM	–	> 100 µM	–	> 100 µM
COc1ccc(COc2ccc(Cc3cnc(N)nc3N)cc2OC)cc1	> 25 µM	> 25 µM	11 µM	> 25 µM	23100 nM	> 25 µM	> 19900 nM	> 25 µM	> 19 µM	> 25 µM	> 25000 nM	> 25 µM	> 23700 nM	> 25 µM	> 25 µM	> 25 µM	8190 nM	> 25 µM	> 17100 nM	> 25 µM
CC1(/C=C/c2ccc(-c3ccccc3)cc2)CCn2cnc3ncnc(c32)N1O (configuration not stated)	0.492 µM	> 100 µM	0.298 µM	> 50.2 µM	509 nM	63.2 µM	467 nM	22.7 µM	0.348 µM	28.7 µM	347 nM	27.9 µM	146 nM	33.5 µM	0.508 µM	40.7 µM	359 nM	> 66.7 µM	635 nM	27.3 µM
CCN(Cc1c(F)cccc1C(F)(F)F)c1ccc(CO)c(Cl)c1	0.0682 µM	0.322 µM	0.132 µM	9.9 µM	14600 nM	28.3 µM	1470 nM	21.9 µM	14.7 µM	32.1 µM	16500 nM	37.1 µM	12800 nM	27.1 µM	13 µM	26.2 µM	692 nM	13 µM	14400 nM	31.7 µM
CC(=O)OCc1cc[c]([Hg][Cl])o1	2.72 µM	5.89 µM	12.7 µM	43 µM	2590 nM	7.81 µM	4690 nM	34.9 µM	10.8 µM	39.1 µM	2070 nM	8.46 µM	1620 nM	3.66 µM	5.24 µM	29.9 µM	991 nM	10.3 µM	12100 nM	29.7 µM
Cn1cc(-c2[nH]c3cc(NC(=O)[C@H](N)C4CCCCC4)cc4c3c2C=NNC4=O)cn1	0.675 µM and 0.467 µM	12.7 µM and > 10 µM	0.184 µM and 0.217 µM	10.5 µM and > 10 µM	866 nM and 562 nM	12.4 µM and > 10 µM	3180 nM and 3240 nM	11.5 µM and > 10 µM	9.8 µM	> 74.4 µM	287 nM and 334 nM	0.797 µM and > 6.55 µM	12000 nM and 5100 nM	> 72 µM	0.56 µM and 0.55 µM	13.4 µM and > 10 µM	193 nM and 205 nM	1.78 µM and > 10 µM	267 nM and 197 nM	9.52 µM and > 10 µM
CS(=O)(=O)Nc1cc(-c2ccc3ncnc(Nc4ccc(OCc5ccccn5)c(Cl)c4)c3c2)cnc1Cl	0.23 µM	1.78 µM	1.49 µM	> 100 µM	313 nM	2.03 µM	286 nM	1.03 µM	7.07 µM	> 100 µM	223 nM	0.75 µM	1130 nM	> 42 µM	0.35 µM	> 100 µM	1290 nM	> 100 µM	381 nM	> 100 µM
CC(C)Cc1cc(-c2cccn2C)c(C#N)c(=O)[nH]1	> 100 µM	> 100 µM	69.4 µM	> 100 µM	> 100000 nM	> 100 µM	> 100000 nM	> 100 µM	> 100 µM	> 100 µM	22500 nM	> 100 µM	> 100000 nM	> 100 µM	> 100 µM	> 100 µM	> 100000 nM	> 100 µM	> 100000 nM	> 100 µM
S=C1NC(c2ccccc2)NC(c2ccccc2)S1 (configuration not stated)	–	> 100 µM	–	> 100 µM	–	> 100 µM	–	> 100 µM	–	> 100 µM	–	> 100 µM	–	> 100 µM	–	> 100 µM	–	> 100 µM	–	> 100 µM
O=C(Nc1cccc(Cl)c1)Nc1cc(C(F)(F)F)ccc1Cl	4.29 µM	39.5 µM	3.8 µM	16.6 µM	1970 nM	4.23 µM	2330 nM	7.13 µM	2.64 µM	7.12 µM	3120 nM	11.4 µM	2660 nM	11.5 µM	3.01 µM	11.5 µM	3360 nM	18.2 µM	2440 nM	6.59 µM
OC(CBr)C(O)C(O)C(O)CBr (configuration not stated)	–	> 100 µM	–	> 100 µM	–	> 100 µM	–	> 100 µM	> 100 µM	> 100 µM	10800 nM	> 30.4 µM	> 100000 nM	> 100 µM	15.3 µM and 57.5 µM	> 100 µM	–	> 100 µM	12000 nM and > 61100 nM	> 100 µM
C=C1CC2(CC(c3ccccc3C)OC(c3ccccc3C)C2)OC1=O (configuration not stated)	–	4.14 µM	–	5.49 µM	–	3.17 µM	–	4.12 µM	–	14.3 µM	–	21.4 µM	–	3.86 µM	–	4.42 µM	–	5.09 µM	–	3.9 µM
COc1cc2cc(C(=O)Nc3ccccc3)c(N)nc2cc1OC	63.5 µM	> 100 µM	29.8 µM	> 100 µM	59600 nM	> 100 µM	28300 nM	> 100 µM	28.4 µM	> 100 µM	38500 nM	> 100 µM	31300 nM	> 100 µM	53.8 µM	> 100 µM	41700 nM	> 100 µM	73900 nM	> 100 µM
COc1ccc2c(c1)C(=O)CC(C(N)=O)C2 (configuration not stated)	–	> 100 µM	–	> 100 µM	–	> 100 µM	–	> 100 µM	–	> 100 µM	–	> 100 µM	–	> 100 µM	–	> 100 µM	–	> 100 µM	–	> 100 µM
N/C(=N/O)NOCCC(N)C(=O)O (configuration not stated)	> 100 µM	> 100 µM	> 100 µM	> 100 µM	> 100000 nM	> 100 µM	> 100000 nM	> 100 µM	> 100 µM	> 100 µM	> 100000 nM	> 100 µM	> 100000 nM	> 100 µM	> 100 µM	> 100 µM	> 100000 nM	> 100 µM	> 100000 nM	> 100 µM
Cc1ccccc1N=C(c1ccccc1)C1C(=O)c2ccccc2C1=O	8.43 µM	38.5 µM	20.4 µM	> 100 µM	21300 nM	> 100 µM	4270 nM	27 µM	8.73 µM	47.3 µM	9980 nM	35.7 µM	11300 nM	73 µM	19.9 µM	> 100 µM	25600 nM	> 100 µM	15800 nM	> 100 µM
C[C@H]1O[C@@H](O[C@H]2[C@@H](O)C[C@H](O[C@H]3[C@@H](O)C[C@H](O[C@H]4CC[C@]5(C)C6CC[C@]7(C)[C@@H](C8=CC(=O)OC8)CC[C@]7(O)C6CC[C@@H]5C4)O[C@@H]3C)O[C@@H]2C)C[C@H](O)[C@@H]1O (some centres not stated)	0.0165 µM	0.0504 µM	–	0.0732 µM	62.1 nM	0.353 µM	19.4 nM	0.135 µM	0.0144 µM	0.0435 µM	11.3 nM	0.0341 µM	25.7 nM	0.0982 µM	0.0167 µM	0.112 µM	15.9 nM	0.0799 µM	11.7 nM	0.0355 µM
COc1ccc(/C=C2\CCC(C)(CN(C)C)C2=O)cc1Br (configuration not stated)	–	44 µM	–	35.9 µM	–	68.1 µM	–	58.4 µM	–	43.2 µM	–	58 µM	–	32.2 µM	–	31.8 µM	–	64.9 µM	–	> 95.1 µM
COc1ccc(N2CCN(c3nc(-c4ccccn4)nc4sc5c(c34)CCCCCC5)CC2)cc1	> 100 µM	> 100 µM	8.58 µM	> 100 µM	49600 nM	> 100 µM	3740 nM	> 100 µM	4.77 µM	> 100 µM	3260 nM	> 100 µM	4260 nM	> 100 µM	5.99 µM	> 100 µM	4150 nM	> 100 µM	16900 nM	> 100 µM
CNC(=O)c1cc(Oc2ccc(NC(=O)Nc3ccc(Cl)c(C(F)(F)F)c3)cc2)ccn1	4.41 µM and 3.83 µM and 4.48 µM	> 10 µM and 9.96 µM and 20.2 µM	3.07 µM and 3.67 µM and 3.42 µM	> 10 µM and 11.5 µM and 22.2 µM	1740 nM and 1620 nM and 1330 nM	4.4 µM and 4.42 µM and 4.14 µM	1500 nM and 2370 nM and 1740 nM	6.25 µM and 6.93 µM and 6.04 µM	3.06 µM and 2.63 µM and 2.65 µM	> 10 µM and 7.89 µM and 15.7 µM	2380 nM and 3150 nM and 2870 nM	–	2760 nM and 3180 nM and 2650 nM	> 10 µM and 12.3 µM and 9.84 µM	2.84 µM and 2.98 µM and 2.31 µM	> 10 µM and 10.6 µM and 7.15 µM	1700 nM and 2500 nM and 2530 nM	> 100 µM	2190 nM and 1650 nM and 1950 nM	9.84 µM and 5.55 µM and 8.21 µM
Cc1cccc(Nc2ncc(-c3ccccc3)o2)c1	> 25 µM	> 25 µM	> 25 µM	> 25 µM	> 18800 nM	> 25 µM	> 25000 nM	> 25 µM	> 25 µM	> 25 µM	> 25000 nM	> 25 µM	> 25000 nM	> 25 µM	> 25 µM	> 25 µM	> 25000 nM	> 25 µM	> 25000 nM	> 25 µM
CCN(CC(O)COc1ccc2c(c1)[n+]([O-])nc(N)[n+]2[O-])C(C)=O (configuration not stated)	–	> 100 µM	–	> 100 µM	–	> 100 µM	–	> 100 µM	–	> 100 µM	–	> 100 µM	–	> 100 µM	–	> 100 µM	–	> 100 µM	–	> 100 µM
Cc1c(-c2c(F)cc(C(N)=O)c3[nH]c4c(c23)CC[C@H](C(C)(C)O)C4)cccc1-n1c(=O)c2cccc(F)c2n(C)c1=O	2.04 µM	8.03 µM	6.31 µM	> 100 µM	4340 nM	> 100 µM	2820 nM	9.01 µM	3.58 µM	> 100 µM	1770 nM	6.58 µM	2700 nM	> 100 µM	3.9 µM	> 100 µM	3610 nM	> 100 µM	2790 nM	> 100 µM
Nc1[nH]c(=S)[nH]c(=O)c1N=Nc1c(Br)cc(S(N)(=O)=O)cc1Br	–	> 100 µM	–	> 100 µM	–	> 100 µM	–	> 100 µM	–	> 100 µM	–	> 100 µM	–	> 100 µM	–	> 100 µM	–	> 100 µM	–	> 100 µM
COc1ccc(CC2OC3(CCCCC3)CC3CCCCN32)cc1 (configuration not stated)	–	> 100 µM	–	> 100 µM	–	> 100 µM	–	> 100 µM	–	> 100 µM	–	> 100 µM	–	> 100 µM	–	> 100 µM	–	> 100 µM	–	> 100 µM
